Laboratory results as given in patent publication US20200101034A1, “RAPID AND CONTROLLED DELIVERY OF COMPOSITIONS WITH RESTORED ENTOURAGE EFFECTS” (RECEPTOR HOLDINGS, INC., priority 2017, published 2020).
Read-outs that look alike come from different tables or passages of the source.

Assays:
[1] = Cannabis/SNAC oral rat pharmacokinetic (PK) study; format: in vivo, rats; conditions: for AUC(0-t) / Tmax: rat, plasma, po; for AUC(0-t): read-out: AUC0-Tlast; for Tmax: read-out: time to reach the mean maximum plasma concentration (Tmax); for AUC0-Tlast versus the cannabis alone group: rats, oral, same cannabis extract dose in the presence of SNAC (250 mg/kg or 500 mg/kg)
Method: Example 4. Summary of cannabis/SNAC oral rat pharmacokinetic (PK) study.
Methods. Animals were dosed on Day 1 and a series of blood samples were collected over a period of 4 hours post dose for pharmacokinetic evaluation. Animals were euthanized following collection of their last blood sample.

[2] = tested on: study participants; experiment: Onset and duration of action of orally administered cannabis/SNAC composition (200 mg SNAC), participant-reported euphoria/dysphoria; format: in vivo, human; conditions: 200 mg SNAC with cannabis concentrate, oral
Method: This study was designed to assess the utility of SNAC in enabling a rapid-acting oral form of cannabis.
Selection of Participants. Six study participants were recruited to ingest cannabis compositions and record the onset, duration, and intensity of cannabis-induced euphoria and/or dysphoria.
(§1) Formulations. The selected cannabis concentrate is commercially available and was provided to participants in an ethanol solution. The concentrate contains 8 mg THC per dose. It was selected because it contains a high percentage of THC, which provides a noticeable effect on user- reported “euphoria”.
(§2) Methods. For the Control experiment, each participant mixed the cannabis concentrate with 15 ml (one tablespoon) of aqueous ethanol, and immediately swallowed the mixture.
(§3) For both the Control experiment and the Test experiment, each participant recorded the time of dose administration, the time of onset of euphoria and/or dysphoria, and the observed level of euphoria and/or dysphoria in fifteen minute intervals for five hours following administration of the cannabis dose. Euphoria and dysphoria were reported using a scale value, in a range from 1-10.

[3] = tested on: study participants; experiment: Onset and duration of action of orally administered cannabis/SNAC composition at a low SNAC dose (100 mg); format: in vivo, human; conditions: 100 mg SNAC with cannabis concentrate, oral
Method: Example 2. […] This study was designed to assess the utility of SNAC in enabling a rapid-acting oral form of cannabis at a low dose.
Selection of Participants. Three study participants were recruited to ingest cannabis compositions and record the onset, duration, and intensity of cannabis-induced euphoria and/or dysphoria.
as §1, §2, §3
Results. The results are combined with the data from Example 1 and are reported for all participants in FIG. 8.

SMILES: C=C(C)[C@@H]1CCC(C)=C[C@H]1c1c(O)cc(CCCCC)cc1O [CBD, cannabidiol]
- AUC(0-t) [1]: 13.2 to 382 ng·h/mL
- Tmax [1]: 0.25 to 1 h
- AUC0-Tlast versus the cannabis alone group [1]: comparable

SMILES: O=C([O-])CCCCCCCNC(=O)c1ccccc1O.[Na+] [SNAC, sodium N-[8-(2-hydroxybenzoyl)amino] caprylate]
- effect of the absorption enhancer on the duration of action of cannabis [2]: no effect
- effect of the absorption enhancer on the duration of action of cannabis [3]: no effect

SMILES: CCCCCc1cc(O)c2c(c1)OC(C)(C)[C@@H]1CCC(C)=C[C@@H]21 [THC, delta-9-tetrahydrocannabinol]
- Tmax ([1]; 25 mg/kg): 1 h
- Tmax ([1]; 50 mg/kg): 2 h
- AUC(0-t) [1]: 171 to 1260 ng·h/mL
- AUC0-Tlast versus the cannabis alone group [1]: comparable
